Laboratory results from patent publication US8735323B2, “Fungicide N-5-membered fused heteroaryl-methylene-N-cycloalkyl-carboxamide derivatives” (Bayer Cropscience AG, priority 2007, dated 2014).

Experiment: logP determination by HPLC on reversed-phase column (C 18), EEC Directive 79/831 Annex V.A8
Format: physicochemical
Conditions: C 18 reversed-phase, 40° C., 0.1% aqueous formic acid and acetonitrile gradient
Protocol: In the following table, the logP values were determined in accordance with EEC Directive 79/831 Annex V.A8 by HPLC (High Performance Liquid Chromatography) on a reversed-phase column (C 18), using the method described below: Temperature: 40° C.; Mobile phases: 0.1% aqueous formic acid and acetonitrile; linear gradient from 10% acetonitrile to 90% acetonitrile. Calibration was carried out using unbranched alkan-2-ones (comprising 3 to 16 carbon atoms) with known logP values (determination of the logP values by the retention times using linear interpolation between two successive alkanones).

LogP: 3.89
Compound: CCc1nn(C)c(F)c1C(=O)N(Cc1cn(-c2ccccc2)c2ccccc12)C1CC1 [Compound 29]
